Experimental data: ChEMBL document CHEMBL1201862, “PubChem BioAssay data set” (2004)
Calls of active or inactive are those of the source.

Assays:
[1] = biological target: Sphingosine 1-phosphate receptor 2 (Homo sapiens, UniProt O95136); test: Dose Response Cell Based Assay for Agonists of the S1P2 Receptor of Purchased Analogues. [Related pubchem assays: 729, 843, 854, 736 ]; type: functional
[2] = biological target: Aspartyl aminopeptidase (Plasmodium falciparum 3D7, UniProt Q8I2J3); test: Counterscreen for inhibitors of M1 and M17 aminopeptidases: QFRET-based biochemical high throughput dose response assay for inhibitors of the Plasmodium falciparum M18 Aspartyl Aminopeptidase (PFM18AAP). [Related PubChem assays: 1619 (Screening assay (M17LAP inhibitors).), 1445 (Screening assay (M1AAP inhibitors).)]
Sequence of Aspartyl aminopeptidase (Q8I2J3 whole entry): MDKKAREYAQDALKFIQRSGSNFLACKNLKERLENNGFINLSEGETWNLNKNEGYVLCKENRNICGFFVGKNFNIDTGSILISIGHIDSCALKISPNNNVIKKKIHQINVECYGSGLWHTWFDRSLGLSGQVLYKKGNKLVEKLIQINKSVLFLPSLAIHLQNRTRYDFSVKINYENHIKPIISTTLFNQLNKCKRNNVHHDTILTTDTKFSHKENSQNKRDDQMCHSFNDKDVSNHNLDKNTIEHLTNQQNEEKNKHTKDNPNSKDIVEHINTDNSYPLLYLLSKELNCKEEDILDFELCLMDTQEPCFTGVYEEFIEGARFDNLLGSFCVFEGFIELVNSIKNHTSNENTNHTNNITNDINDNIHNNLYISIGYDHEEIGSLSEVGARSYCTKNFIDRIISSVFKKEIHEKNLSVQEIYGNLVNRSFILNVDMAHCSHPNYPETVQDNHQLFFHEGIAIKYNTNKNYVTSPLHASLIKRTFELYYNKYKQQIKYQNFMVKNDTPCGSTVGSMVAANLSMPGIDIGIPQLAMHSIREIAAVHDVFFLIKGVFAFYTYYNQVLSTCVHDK

[3] = biological target: T1, Aminopeptidase N (Plasmodium falciparum FcB1/Columbia, UniProt O96935); test: P. falciparum M1AAP inhibitors, biochemical, fluorogenic H-Leu-NHMec substrate, 1536-well (AID 1445); design: species or system Plasmodium falciparum 3D7, 3D7
T1 sequence (O96935 whole entry): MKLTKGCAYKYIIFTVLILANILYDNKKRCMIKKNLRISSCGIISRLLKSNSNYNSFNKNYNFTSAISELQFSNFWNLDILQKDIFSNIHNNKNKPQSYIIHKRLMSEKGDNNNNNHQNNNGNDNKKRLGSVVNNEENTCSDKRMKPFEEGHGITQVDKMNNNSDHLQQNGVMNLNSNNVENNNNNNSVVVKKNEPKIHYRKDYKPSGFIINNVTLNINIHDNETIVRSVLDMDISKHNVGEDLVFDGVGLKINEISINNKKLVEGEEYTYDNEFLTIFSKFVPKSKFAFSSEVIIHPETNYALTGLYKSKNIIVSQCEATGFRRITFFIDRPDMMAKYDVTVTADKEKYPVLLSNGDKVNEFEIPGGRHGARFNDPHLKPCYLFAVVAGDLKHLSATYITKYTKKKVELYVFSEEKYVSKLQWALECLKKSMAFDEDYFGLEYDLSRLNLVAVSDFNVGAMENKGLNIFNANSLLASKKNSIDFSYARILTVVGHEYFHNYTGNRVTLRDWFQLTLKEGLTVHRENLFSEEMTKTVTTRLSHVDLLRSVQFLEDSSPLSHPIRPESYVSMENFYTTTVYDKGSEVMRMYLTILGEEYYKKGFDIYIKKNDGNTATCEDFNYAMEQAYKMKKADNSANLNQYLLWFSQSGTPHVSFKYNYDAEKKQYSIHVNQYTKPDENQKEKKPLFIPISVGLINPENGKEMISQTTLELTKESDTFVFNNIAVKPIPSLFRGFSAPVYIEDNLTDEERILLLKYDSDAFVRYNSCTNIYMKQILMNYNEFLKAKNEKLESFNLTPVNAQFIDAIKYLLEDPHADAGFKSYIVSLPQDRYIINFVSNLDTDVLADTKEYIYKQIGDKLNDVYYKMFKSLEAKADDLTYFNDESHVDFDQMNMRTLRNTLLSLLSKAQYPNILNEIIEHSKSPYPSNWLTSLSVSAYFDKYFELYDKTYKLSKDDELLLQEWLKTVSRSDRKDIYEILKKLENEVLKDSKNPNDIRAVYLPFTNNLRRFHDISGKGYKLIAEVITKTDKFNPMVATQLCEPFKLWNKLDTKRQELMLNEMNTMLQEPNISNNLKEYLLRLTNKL

[4] = biological target: Peroxisome proliferator-activated receptor gamma/Nuclear receptor coactivator 1 (Homo sapiens, UniProt P37231); test: (§1) TR-FRET dose response biochemical High Throughput Screening assay for agonists of the steroid receptor coactivator 1 (SRC-1) recruitment by the peroxisome proliferator-activated receptor gamma (PPAR gamma): non-selective agonists. [Related pubchem assays (depositor defined):AID1300, AID1808, AID504735, AID631]; type: protein assay
[5] = biological target: Peroxisome proliferator-activated receptor gamma/Nuclear receptor coactivator 3 (Homo sapiens, UniProt P37231); test: as §1, with “3 (SRC-3)” for “1 (SRC-1)”, “assays: 1301 (Confirmation screen.), 1048 (Primary screen.)]” for “assays (depositor defined):AID1300, AID1808, AID504735, AID631]”; type: functional
Sequence of Peroxisome proliferator-activated receptor gamma/Nuclear receptor coactivator 3 (P37231 whole entry): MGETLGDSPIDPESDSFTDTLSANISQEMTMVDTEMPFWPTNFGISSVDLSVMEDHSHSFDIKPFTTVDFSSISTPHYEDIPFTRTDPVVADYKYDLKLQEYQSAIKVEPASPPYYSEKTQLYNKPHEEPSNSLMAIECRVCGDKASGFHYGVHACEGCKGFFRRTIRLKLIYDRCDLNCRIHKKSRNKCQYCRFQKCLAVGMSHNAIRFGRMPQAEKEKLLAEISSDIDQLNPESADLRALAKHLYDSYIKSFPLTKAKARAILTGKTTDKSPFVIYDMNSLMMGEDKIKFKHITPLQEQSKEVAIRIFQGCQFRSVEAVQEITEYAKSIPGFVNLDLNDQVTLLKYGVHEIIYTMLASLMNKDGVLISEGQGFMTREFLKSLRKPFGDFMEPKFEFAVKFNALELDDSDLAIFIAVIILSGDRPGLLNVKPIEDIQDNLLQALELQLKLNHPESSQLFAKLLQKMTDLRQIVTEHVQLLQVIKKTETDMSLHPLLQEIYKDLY
Sequence of Peroxisome proliferator-activated receptor gamma/Nuclear receptor coactivator 3 (Q9Y6Q9 whole entry, further chain): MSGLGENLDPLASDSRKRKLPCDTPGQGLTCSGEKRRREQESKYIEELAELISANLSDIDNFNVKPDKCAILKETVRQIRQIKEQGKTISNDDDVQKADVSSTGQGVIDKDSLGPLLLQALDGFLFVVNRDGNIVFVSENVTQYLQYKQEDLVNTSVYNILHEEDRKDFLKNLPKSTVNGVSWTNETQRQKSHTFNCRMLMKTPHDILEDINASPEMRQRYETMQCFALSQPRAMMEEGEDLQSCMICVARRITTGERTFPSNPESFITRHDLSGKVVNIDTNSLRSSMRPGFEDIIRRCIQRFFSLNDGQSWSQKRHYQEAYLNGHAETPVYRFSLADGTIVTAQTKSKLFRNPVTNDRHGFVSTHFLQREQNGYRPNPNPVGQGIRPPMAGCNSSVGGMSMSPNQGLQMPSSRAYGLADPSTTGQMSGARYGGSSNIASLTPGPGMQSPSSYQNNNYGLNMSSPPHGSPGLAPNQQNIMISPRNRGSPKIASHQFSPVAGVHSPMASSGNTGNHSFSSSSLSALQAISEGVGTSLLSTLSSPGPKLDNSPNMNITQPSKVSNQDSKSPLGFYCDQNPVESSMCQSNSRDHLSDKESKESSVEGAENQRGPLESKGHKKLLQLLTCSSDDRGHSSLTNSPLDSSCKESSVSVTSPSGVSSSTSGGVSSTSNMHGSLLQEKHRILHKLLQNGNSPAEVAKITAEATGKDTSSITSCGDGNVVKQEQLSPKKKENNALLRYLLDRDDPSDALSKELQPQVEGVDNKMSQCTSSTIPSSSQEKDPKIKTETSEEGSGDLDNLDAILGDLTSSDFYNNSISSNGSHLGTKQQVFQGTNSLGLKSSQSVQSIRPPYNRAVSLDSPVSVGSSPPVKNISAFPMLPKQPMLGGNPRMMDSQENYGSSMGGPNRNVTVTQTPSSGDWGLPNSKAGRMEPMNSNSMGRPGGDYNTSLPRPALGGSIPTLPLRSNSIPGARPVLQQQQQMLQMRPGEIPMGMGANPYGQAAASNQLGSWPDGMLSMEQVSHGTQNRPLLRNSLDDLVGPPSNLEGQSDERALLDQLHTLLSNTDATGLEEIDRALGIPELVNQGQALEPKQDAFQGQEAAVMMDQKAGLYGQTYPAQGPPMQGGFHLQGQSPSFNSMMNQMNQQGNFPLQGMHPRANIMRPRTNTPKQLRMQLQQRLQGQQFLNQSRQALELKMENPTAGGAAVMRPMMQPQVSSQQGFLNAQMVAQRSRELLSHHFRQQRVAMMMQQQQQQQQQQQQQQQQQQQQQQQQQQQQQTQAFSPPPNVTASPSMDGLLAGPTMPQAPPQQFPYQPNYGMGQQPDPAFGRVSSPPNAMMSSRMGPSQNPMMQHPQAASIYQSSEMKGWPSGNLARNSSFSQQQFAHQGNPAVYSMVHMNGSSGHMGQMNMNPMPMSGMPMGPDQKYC

[6] = biological target: Procathepsin L (Homo sapiens, UniProt P07711); test: cathepsin L inhibitors, dose response, counter-screen for M1/M17 aminopeptidase inhibitor project, biochemical, QFRET, 1536-well (AID 2214)
Sequence of Procathepsin L (P07711 whole entry): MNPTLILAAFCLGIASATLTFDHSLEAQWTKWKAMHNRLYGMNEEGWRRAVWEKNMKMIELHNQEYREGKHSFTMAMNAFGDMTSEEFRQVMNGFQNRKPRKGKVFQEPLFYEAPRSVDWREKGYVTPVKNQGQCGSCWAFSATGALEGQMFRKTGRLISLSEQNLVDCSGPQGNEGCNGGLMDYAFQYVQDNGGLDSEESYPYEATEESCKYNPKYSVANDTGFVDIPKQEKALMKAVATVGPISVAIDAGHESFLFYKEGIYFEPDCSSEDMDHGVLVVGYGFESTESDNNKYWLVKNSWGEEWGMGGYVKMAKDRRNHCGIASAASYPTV

[7] = biological target: Peroxisome proliferator-activated receptor gamma/Nuclear receptor coactivator 2 (Homo sapiens, UniProt P37231); test: TR-FRET dose response biochemical High Throughput Screening assay for agonists of the steroid receptor coactivator 2 (SRC-2) recruitment by the peroxisome proliferator-activated receptor gamma (PPAR gamma): non-selective agonists. [Related pubchem assays: 1297, 1032 ]; type: functional
[8] = biological target: T2, Corticotropin-releasing factor receptor 2/Corticotropin-releasing factor-binding protein (Homo sapiens, UniProt P24387+Q13324); test: Dose Response confirmation of uHTS hits for small molecule antagonists of the CRF-binding protein and CRF-R2 receptor complex.; type: functional; conditions: read-out: IC50_Mean
T2 sequence (Q13324 whole entry): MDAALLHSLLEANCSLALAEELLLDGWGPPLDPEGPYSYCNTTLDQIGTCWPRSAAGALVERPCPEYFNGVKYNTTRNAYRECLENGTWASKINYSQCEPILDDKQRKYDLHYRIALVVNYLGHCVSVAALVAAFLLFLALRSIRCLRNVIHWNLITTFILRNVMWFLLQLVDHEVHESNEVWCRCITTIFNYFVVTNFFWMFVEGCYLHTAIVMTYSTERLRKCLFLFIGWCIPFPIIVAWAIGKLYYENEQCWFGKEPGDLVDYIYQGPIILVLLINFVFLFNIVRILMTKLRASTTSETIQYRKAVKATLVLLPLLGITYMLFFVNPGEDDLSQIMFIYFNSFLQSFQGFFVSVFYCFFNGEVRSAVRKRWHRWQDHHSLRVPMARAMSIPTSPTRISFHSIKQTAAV
T2 sequence (P24387 whole entry): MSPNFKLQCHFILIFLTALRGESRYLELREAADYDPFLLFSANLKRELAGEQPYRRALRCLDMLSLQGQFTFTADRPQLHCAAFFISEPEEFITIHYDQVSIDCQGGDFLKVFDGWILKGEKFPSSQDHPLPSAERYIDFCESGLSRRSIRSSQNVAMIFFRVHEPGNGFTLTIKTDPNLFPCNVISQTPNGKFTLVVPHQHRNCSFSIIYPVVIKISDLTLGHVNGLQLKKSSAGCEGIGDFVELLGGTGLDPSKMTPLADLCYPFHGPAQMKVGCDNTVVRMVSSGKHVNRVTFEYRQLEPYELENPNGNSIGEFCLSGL

[9] = biological target: T2, Corticotropin-releasing factor receptor 2/Corticotropin-releasing factor-binding protein; test: activators of CRF receptor 2 with binding protein – uHTS hits, confirmation (AID 602473); type: functional; conditions: read-out: EC50_Mean
[10] = biological target: Protein-tyrosine kinase 2-beta (Homo sapiens, UniProt Q14289);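 also: potency of inhibitors of PYK2 kinase phosphorylation of poly-GT substrate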
Sequence of Protein-tyrosine kinase 2-beta (Q14289 whole entry): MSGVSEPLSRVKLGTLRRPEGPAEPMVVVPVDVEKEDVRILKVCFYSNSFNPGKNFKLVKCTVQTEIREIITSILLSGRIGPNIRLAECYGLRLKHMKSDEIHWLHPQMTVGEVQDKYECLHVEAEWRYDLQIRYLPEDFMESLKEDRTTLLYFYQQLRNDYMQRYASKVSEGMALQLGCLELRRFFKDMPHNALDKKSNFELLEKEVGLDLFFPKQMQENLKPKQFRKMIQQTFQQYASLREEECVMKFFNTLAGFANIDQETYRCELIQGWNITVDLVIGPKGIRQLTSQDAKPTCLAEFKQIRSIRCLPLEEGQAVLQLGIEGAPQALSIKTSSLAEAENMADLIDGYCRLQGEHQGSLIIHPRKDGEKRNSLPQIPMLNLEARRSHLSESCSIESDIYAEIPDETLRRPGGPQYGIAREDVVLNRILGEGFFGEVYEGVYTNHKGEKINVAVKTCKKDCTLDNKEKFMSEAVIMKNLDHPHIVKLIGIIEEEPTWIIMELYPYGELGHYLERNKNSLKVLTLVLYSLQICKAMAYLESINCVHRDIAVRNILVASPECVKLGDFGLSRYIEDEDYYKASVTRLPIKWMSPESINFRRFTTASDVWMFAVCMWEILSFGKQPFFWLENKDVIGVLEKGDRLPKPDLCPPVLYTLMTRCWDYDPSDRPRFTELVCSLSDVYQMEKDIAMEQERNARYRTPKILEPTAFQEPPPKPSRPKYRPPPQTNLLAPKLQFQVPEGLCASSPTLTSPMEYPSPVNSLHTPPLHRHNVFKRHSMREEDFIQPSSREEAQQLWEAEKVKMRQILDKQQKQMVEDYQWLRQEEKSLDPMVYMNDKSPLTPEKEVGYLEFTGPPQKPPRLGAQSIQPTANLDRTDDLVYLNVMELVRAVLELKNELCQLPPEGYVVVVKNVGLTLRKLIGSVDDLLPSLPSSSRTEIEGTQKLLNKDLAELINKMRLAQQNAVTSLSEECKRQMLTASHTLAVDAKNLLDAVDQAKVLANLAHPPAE

[11] = biological target: T3, Replicative DNA helicase DnaB (Mycobacterium tuberculosis, UniProt P9WMR3); test: DnaB intein splicing inhibitors, dose response, biochemical, cell-free fluorescence (AID 449749); type: functional
T3 sequence (P9WMR3 whole entry): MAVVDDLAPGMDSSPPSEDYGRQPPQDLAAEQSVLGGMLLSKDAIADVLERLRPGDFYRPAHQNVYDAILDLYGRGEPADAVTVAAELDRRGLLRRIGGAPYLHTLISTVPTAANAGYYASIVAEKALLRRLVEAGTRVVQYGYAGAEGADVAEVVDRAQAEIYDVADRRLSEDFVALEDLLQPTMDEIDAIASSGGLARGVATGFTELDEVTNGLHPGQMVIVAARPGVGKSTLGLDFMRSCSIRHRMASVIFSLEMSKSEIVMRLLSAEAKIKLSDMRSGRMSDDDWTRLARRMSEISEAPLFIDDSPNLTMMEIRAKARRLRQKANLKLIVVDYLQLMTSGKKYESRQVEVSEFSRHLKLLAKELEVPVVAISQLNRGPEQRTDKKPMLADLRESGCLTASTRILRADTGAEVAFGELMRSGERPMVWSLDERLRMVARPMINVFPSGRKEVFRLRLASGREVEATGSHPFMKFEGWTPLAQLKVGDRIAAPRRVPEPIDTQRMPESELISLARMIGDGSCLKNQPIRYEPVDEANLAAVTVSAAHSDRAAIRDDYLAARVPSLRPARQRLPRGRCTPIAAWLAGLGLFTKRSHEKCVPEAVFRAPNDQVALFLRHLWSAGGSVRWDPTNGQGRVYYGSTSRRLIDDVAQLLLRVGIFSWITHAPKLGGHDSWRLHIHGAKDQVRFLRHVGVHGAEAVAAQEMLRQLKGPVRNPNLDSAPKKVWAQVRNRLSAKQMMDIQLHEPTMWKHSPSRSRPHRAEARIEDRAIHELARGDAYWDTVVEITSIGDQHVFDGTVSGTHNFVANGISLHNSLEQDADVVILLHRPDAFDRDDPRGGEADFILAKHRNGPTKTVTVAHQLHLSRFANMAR

[12] = biological target: T4, Apoptotic protease-activating factor 1 (Homo sapiens, UniProt O14727); type: functional
T4 sequence (O14727 whole entry): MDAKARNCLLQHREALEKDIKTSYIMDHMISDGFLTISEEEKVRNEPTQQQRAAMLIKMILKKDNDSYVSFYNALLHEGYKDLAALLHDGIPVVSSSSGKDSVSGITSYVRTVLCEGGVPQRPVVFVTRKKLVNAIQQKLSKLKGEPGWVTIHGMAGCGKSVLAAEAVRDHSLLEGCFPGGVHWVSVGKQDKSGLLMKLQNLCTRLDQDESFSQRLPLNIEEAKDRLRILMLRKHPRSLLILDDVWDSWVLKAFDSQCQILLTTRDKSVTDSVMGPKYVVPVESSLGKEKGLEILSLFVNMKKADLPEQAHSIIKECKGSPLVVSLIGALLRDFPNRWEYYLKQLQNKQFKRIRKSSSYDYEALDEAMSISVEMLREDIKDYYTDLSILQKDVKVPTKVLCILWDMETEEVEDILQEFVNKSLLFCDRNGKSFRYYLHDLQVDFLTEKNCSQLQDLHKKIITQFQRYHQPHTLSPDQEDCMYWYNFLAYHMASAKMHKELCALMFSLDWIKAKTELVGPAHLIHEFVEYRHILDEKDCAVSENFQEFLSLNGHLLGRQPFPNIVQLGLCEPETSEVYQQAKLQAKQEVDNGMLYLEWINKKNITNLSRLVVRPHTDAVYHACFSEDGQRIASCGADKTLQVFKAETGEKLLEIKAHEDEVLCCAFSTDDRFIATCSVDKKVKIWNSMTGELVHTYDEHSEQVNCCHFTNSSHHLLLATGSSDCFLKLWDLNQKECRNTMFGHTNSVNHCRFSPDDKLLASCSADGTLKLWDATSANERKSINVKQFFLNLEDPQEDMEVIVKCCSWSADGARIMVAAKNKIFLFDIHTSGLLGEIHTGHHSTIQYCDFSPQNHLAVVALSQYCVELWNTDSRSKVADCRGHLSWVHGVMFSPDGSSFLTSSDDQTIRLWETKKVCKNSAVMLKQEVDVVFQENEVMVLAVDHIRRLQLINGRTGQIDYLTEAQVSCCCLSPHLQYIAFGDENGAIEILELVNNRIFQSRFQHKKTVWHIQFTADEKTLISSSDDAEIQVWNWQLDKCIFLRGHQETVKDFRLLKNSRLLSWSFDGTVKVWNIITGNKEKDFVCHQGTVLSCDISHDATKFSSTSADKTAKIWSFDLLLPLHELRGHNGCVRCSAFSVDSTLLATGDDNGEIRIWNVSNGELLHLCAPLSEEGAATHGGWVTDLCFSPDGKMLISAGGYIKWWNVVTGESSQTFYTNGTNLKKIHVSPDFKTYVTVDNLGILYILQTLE

[13] = biological target: T5, Protein RecA (Mycobacterium tuberculosis, UniProt P9WHJ3); test: Fluorescence Cell-Free Homogeneous Dose Retest to Identify Inhibitors of RecA-Intein Splicing Activity. [Related pubchem assays (depositor defined):AID2097, AID2223, AID489010, AID492950]; type: functional
T5 sequence (P9WHJ3 whole entry): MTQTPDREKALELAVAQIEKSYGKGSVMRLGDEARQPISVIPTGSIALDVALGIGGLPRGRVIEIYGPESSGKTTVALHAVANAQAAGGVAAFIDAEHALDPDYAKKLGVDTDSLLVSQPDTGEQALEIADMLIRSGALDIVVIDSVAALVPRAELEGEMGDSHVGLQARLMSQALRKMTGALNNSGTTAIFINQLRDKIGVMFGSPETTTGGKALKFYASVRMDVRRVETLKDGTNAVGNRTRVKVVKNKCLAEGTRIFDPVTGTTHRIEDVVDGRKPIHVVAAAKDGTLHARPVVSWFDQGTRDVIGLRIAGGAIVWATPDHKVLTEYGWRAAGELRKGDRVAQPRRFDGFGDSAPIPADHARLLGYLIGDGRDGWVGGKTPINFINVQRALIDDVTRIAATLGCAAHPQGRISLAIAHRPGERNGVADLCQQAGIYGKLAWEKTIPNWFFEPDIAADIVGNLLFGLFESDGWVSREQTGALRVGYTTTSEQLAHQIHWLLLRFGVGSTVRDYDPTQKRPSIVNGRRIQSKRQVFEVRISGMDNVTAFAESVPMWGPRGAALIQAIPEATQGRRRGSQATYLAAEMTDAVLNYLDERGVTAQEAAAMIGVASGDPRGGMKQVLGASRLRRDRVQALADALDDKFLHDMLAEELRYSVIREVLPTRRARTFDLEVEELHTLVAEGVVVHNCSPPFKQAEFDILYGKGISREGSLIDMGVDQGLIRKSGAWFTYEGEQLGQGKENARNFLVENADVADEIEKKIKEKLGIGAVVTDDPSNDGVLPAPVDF

[14] = biological target: T6, Sentrin-specific protease 8 (Homo sapiens, UniProt Q96LD8); type: functional
T6 sequence (Q96LD8 whole entry): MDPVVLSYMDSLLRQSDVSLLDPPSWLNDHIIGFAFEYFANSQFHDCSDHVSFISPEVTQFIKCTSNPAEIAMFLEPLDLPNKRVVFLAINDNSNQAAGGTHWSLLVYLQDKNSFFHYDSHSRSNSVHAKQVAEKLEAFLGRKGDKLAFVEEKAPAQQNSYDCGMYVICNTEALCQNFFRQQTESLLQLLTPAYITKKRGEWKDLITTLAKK

[15] = biological target: T6, Sentrin-specific protease 8; type: functional; remark: listed apart in the source

Sequence of Sphingosine 1-phosphate receptor 2 (O95136 whole entry): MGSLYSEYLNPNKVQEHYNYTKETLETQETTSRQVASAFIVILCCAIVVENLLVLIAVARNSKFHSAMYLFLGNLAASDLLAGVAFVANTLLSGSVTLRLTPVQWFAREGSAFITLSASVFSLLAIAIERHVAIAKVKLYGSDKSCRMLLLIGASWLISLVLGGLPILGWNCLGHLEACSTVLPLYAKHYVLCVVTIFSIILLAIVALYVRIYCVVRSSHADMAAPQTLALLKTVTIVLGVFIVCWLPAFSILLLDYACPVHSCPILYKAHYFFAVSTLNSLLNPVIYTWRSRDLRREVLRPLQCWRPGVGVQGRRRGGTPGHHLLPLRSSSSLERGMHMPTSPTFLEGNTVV

CNC(=O)c1ccc(CN(C)CC(=O)c2cc(C)n(Cc3ccccc3)c2C)cc1
EC50 [1]: > 30 µM (not active)

O=C1Nc2ccccc2/C1=C1/SC(=S)N(NC(=O)c2cccc(O)c2)C1=O
IC50 [2]: 39.5 µM (not active) | IC50 [3]: 4.08 µM (active) | EC50 [4]: > 79.4 µM (inactive) | EC50 [5]: > 79.4 µM (not active) | IC50 [6]: 31.8 µM (not active) | EC50 [7]: 41 µM (not active) | IC50 [8]: < 0.368 µM (active) | EC50 [9]: > 53 µM (inactive)

O=C1Cc2ccccc2C(=O)N1Cc1ccccc1
IC50 [10]: > 69.5 µM (not active) | AC50 [11]: > 380 µM (inconclusive) | IC50 [12]: 3.89 µM (active) | EC50 [13]: 2.04 µM (active) | IC50 [14]: > 100 µM (inactive) | IC50 [15]: 1.06 µM (active)
